Drawing on patent publication US10414983B2, “Curved liquid crystal display” (SAMSUNG DISPLAY CO., LTD., priority 2017, dated 2019), this text covers Adsorption force for 8 molecules.

A short description of the series: Adsorption force of the first compound. It counts as physicochemical. The arrangement: unit not given here. To be noted: adsorption to pixel electrode; unit not given; larger absolute value = stronger adsorption. An excerpt: Next, a physical characteristic of the first compound according to an example embodiment obtained as above-described and a comparative example are compared.
As described in Table 2, solubility and adsorption force of the first compound according to Examples 1 to 7 and the Comparative Example are described.
Referring to Table 2, in the case of the first compound according to an example embodiment, it is confirmed that the solubility is the same level as or higher than the comparative example. Also, it may be confirmed that an absolute value of the adsorption force of the first compound is the same level as or higher than the comparative example. Accordingly, the first compound may be easily absorbed to the pixel electrode, thereby it may be confirmed that the solubility is excellent when being injected to the liquid crystal material and the first compound is easily injected along with the liquid crystal material.
For the molecule `C=C(C)C(=O)OCCCc1cc(-c2ccccc2CC)cc(CCCOC(=O)C(=C)C)c1OCCCCCc1ccc(OCCCCCO)cc1` [Comparative Example, reference compound], the Adsorption force is recorded as −0.49.

Take `C=C(CCN(CCO)CCO)Oc1ccc(C(=O)c2ccc(OC(=O)C(=C)C)cc2)cc1` [Example 1]: the Adsorption force is listed as −1.27.

`C=C(C)C(=O)OCCCCCOc1ccc(C(=O)c2ccc(OCCCCCCOC(=O)CCN(CCO)CCO)cc2)cc1` [Example 2]: the Adsorption force is recorded as −1.34.

Regarding `C=C(C)C(=O)OCCCCCOc1c(F)cc(-c2ccc(OCCCCCCOC(=O)CCN(CCC)CCO)cc2)cc1F` [Example 3], the Adsorption force is −0.99.

Turning to `C=CC(=O)OCCOc1c(F)cc(-c2ccc(OCCOC(=O)CCOC3CCOCC3)cc2)cc1F` [Example 4], the Adsorption force was −0.40.

In turn, `C=CC(=O)OCCOc1c(F)cc(-c2ccc(OCCOC(=O)CCOCc3ccoc3)cc2)cc1F` [Example 5] displayed an Adsorption force of −0.45.

For `C=CC(=O)OCCOc1c(F)cc(-c2ccc(OCCOC(=O)CCOCc3cccnn3)cc2)cc1F` [Example 6], the Adsorption force was −0.51.

`C=CC(=O)OCCOc1c(F)cc(-c2ccc(OCCOC(=O)CCOCc3ccon3)cc2)cc1F` [Example 7] returned an Adsorption force of −0.53.
